The values below come from patent US7317018B2, “Anti-inflammatory medicament” (Medestea Internazionale S.p.A., priority 2000, dated 2008).

Molecules are shown by their SMILES.

Common to all, as to type: in vivo
Test [1] relates to rat hind paw inflamed by Freund's complete adjuvant (FCA). Nature of the test: Paw pressure test (nociceptive threshold) and inflammatory signs in rat hind paw inflamed by intraplantar Freund's complete adjuvant (FCA). Here is the method:
As experimental model, a unilateral inflammation in rat hind paw, after intraplantar injection of Freund's complete adjuvant (FCA), has been used. The controlateral paw of treated animals, as well as that of untreated animals, were used as controls. Inflammation induced by FCA was evidenced, from 3 h until 24-48 h following injection, by increase in paw volume, hyperthermia and hyperalgesia. The latter was evaluated by an algesyometric test (paw pressure test) capable of evaluating the nociceptive threshold. […] Different doses of oATP always induced a significant, dose-dependent analgesic effect, lasting approximately 12-24 hours, with an effect peak already one hour after the administration.
(§1) Male Fischer inbred rats (Charles River Italy, Calco, Lecco, Italy) weighing about 250 g were used. Rats, under brief isoflurane anaesthesia received an intraplantar injection of Freund's complete adjuvant (FCA) (0.15 ml) into the right hind paw. This injection induced a unilateral inflammation (from 3 h until 24-48 h following injection) evidenced by increase in paw volume, hyperthermia and hyperalgesia. Hyperalgesia was assessed by an algesyometric test, using an analgesyometer (Ugo Basile, Comerio, Italy) to determine the paw pressure threshold, expressed in grams, namely the pressure required to elicit paw withdrawal, which indicates the nociceptive threshold value. 6 to 8 rats were used for each test. During these trials, animals were treated according to the “standard ethical guidelines” (NIH, 1985).
Rat inflamed paw received, 24 hrs after FCA injection, intraplantar injection of different doses of oATP (56 to 336 μM), considering time 0 the moment of oATP injection.
The effect of the maximal oATP dose used was tested in a further set of experiments, for more prolonged times, on rat paws in which the inflammatory process had been induced 48 hrs before (table 2). […]

A further test concerns noninflamed rat paws. Nature of the test: Paw pressure test (nociceptive threshold) in noninflamed rat paws. The procedure:
as §1
Dose/effect curves in noninflamed paws were in fact superimposable (until 120′ after oATP administration) using different concentrations of the molecule. In order to ascertain whether oATP analgesic effect was somewhat related to the activation of inflammatory cells able to produce endogenous β-endorphins, some rats were intravenously injected with fucoidin (10 mg/kg). Fucoidin in fact inhibits leukocyte diapedesis and their accumulation at the inflammation site. Pre-treatment with fucoidin was carried out in both paws, 30′ before FCA injection in one of the rat paws. Pain pressure threshold (PPT) was measured in both noninflamed and inflamed paws, before and after oATP injection (224 μm).

Test [2] concerns ATP content in paw subcutaneous tissue. Nature of the test: ATP content of rat paw subcutaneous tissue, luminescence method. The conditions noted are these: for ATP levels: 6 and 12 h following intraplantar oATP (35 μM), FIG. 3.
Protocol: ATP content was assessed in oATP treated rat paws and controlateral untreated ones. Paw subcutaneous tissues were removed from both inflamed and noninflamed paws and rapidly frozen in liquid nitrogen. The frozen tissue samples were weighed, homogenised in phosphate buffer, then treated with K2CO3 and neutralised, finally centrifuged. The supernatant was used for ATP assay, following the luminescence method. We determined in a separate group of rats the modifications in ATP content induced in the plantar tissue by the inflammatory process and/or by oATP treatment. At established times, paw subcutaneous tissues were removed and rapidly frozen in liquid nitrogen, with the aim of blocking any metabolic activity. The frozen tissue was homogenized with a polytron (Kinematica GmbH, Luzern, Switzerland) in ice-cold 6% (w/v) HClO4 to extract nucleotides. The homogenate was centrifuged and the supernatant was used for ATP determination, following the procedure previously described (Marni et al., Transplantation (1988), 46: 830-835). ATP assay was performed by luminescence method (Ferrero et al., Res Commun Chem Path Pharmac 1984; 45: 55-67). We measured ATP levels, in inflamed (by 24 h FCA treatment) and noninflamed paws treated with oATP, at 6 and 12 h following oATP administration, and in controlateral untreated paws. […] ATP content, at 6 and 12 h following intraplantar oATP (35 μM) injection in rat paws: inflamed (by 24 FCA administration) (filled bars), inflamed-oATP treated (hatched bars), noninflamed (open bars), noninflamed-oATP-treated (horizontal line bars). *p<0.005 compared with inflamed untreated paws, Wilcoxon test. Data are expressed as means±S.E.M. of 7 experiments.

With `Nc1ncnc2c1ncn2[C@@H]1O[C@H](COP(=O)(O)OP(=O)(O)OP(=O)(O)O)[C@@H](O)[C@H]1O` [ATP, reference compound], the nociceptive threshold in test [1] (inflamed paws, after intraplantar injection of ATP (0.9 mmoles)) amounted to 50±4.1; in test [1] (inflamed paws, before intraplantar injection of ATP (0.9 mmoles)), 65±4.2; with noninflamed rat paws (240′ after intraplantar injection of ATP (0.9 mmoles)) it was 25±3.0; in the test with noninflamed rat paws (before intraplantar injection of ATP (0.9 mmoles)), 120±3.2.

With `Nc1ncnc2c1ncn2[C@@H](C=O)O[C@@H](C=O)COP(=O)(O)OP(=O)(O)OP(=O)(O)O` [oATP, adenosine-5′-triphosphate-2′,3′-dialdehyde], the “pain pressure threshold (PPT)” value is on record as “restored PPT levels” in test [1] (inflamed paws, fucoidin 10 mg/kg i.v. pre-treatment 30′ before FCA, oATP injection 224 μm, FIG. 1) and “did not significantly change PPT values” in the test on noninflamed rat paws (fucoidin 10 mg/kg i.v. pre-treatment, oATP injection 224 μm, FIG. 1). In addition, the “duration of analgesic effect” value in test [1] (intraplantar injection, different doses of oATP) lay within 12 to 24 h. In test [1] (intraplantar oATP 56 to 336 μM), the “dose dependence of analgesic effect” value was “dose-dependent effect”. Moreover, in test [1] (local treatment 3 hours after FCA, oATP 336 μM vs diclofenac 15 mg, FIG. 2), the “analgesic efficacy compared with diclofenac” value is on record as “significantly higher than that of diclofenac”. For the same compound, the “nociceptive threshold or paw pressure threshold” value in test [1] (oATP 56 μM intraplantar, 24 hrs after FCA, inflamed paw, 30′) amounted to 120 ± 2.1 g; in test [1] (oATP 56 μM intraplantar, 24 hrs after FCA, inflamed paw, 60′) it was 190 ± 2.3 g; in test [1] (oATP 56 μM intraplantar, 24 hrs after FCA, inflamed paw, 90′), 85 ± 2.5 g; in test [1] (oATP 56 μM intraplantar, 24 hrs after FCA, inflamed paw, 120′), 75 ± 1.8 g; in test [1] (oATP 56 μM intraplantar, 24 hrs after FCA, inflamed paw, 240′), 75 ± 2.6 g; in test [1] (oATP 56 μM intraplantar, 24 hrs after FCA, inflamed paw, time 0′ (untreated inflamed paw, baseline)), 60 ± 1.6 g. Besides, the “nociceptive threshold or paw pressure threshold” value in test [1] (oATP 112 μM intraplantar, 24 hrs after FCA, inflamed paw, 30′) is recorded as 140 ± 3.5 g; in test [1] (oATP 112 μM intraplantar, 24 hrs after FCA, inflamed paw, 60′), 180 ± 4.2 g; in test [1] (oATP 112 μM intraplantar, 24 hrs after FCA, inflamed paw, 90′), 150 ± 3.8 g; in test [1] (oATP 112 μM intraplantar, 24 hrs after FCA, inflamed paw, 120′) it was 100 ± 3.0 g; in test [1] (oATP 112 μM intraplantar, 24 hrs after FCA, inflamed paw, 240′), 105 ± 4.3 g; in test [1] (oATP 112 μM intraplantar, 24 hrs after FCA, inflamed paw, time 0′ (untreated inflamed paw, baseline)), 65 ± 2.0 g. Besides, the “nociceptive threshold or paw pressure threshold” value in test [1] (oATP 224 μM intraplantar, 24 hrs after FCA, inflamed paw, 30′) amounted to 350 ± 54 g; in test [1] (oATP 224 μM intraplantar, 24 hrs after FCA, inflamed paw, 60′), 400 ± 10.3 g; in test [1] (oATP 224 μM intraplantar, 24 hrs after FCA, inflamed paw, 90′), 300 ± 11.2 g; in test [1] (oATP 224 μM intraplantar, 24 hrs after FCA, inflamed paw, 120′) it was 185 ± 7.1 g; in test [1] (oATP 224 μM intraplantar, 24 hrs after FCA, inflamed paw, 240′), 180 ± 8.9 g; in test [1] (oATP 224 μM intraplantar, 24 hrs after FCA, inflamed paw, time 0′ (untreated inflamed paw, baseline)) it was 50 ± 1.5 g. Besides, the “nociceptive threshold or paw pressure threshold” value in test [1] (oATP 336 μM intraplantar, 24 hrs after FCA, inflamed paw, 30′) is listed as 300 ± 3.4 g; in test [1] (oATP 336 μM intraplantar, 24 hrs after FCA, inflamed paw, 60′, 750 = cut off), “=> 750 *1 g”; in test [1] (oATP 336 μM intraplantar, 24 hrs after FCA, inflamed paw, 90′, 750 = cut off), “=> 750 *2 g”; in test [1] (oATP 336 μM intraplantar, 24 hrs after FCA, inflamed paw, 120′), 600 ± 20.8 g; in test [1] (oATP 336 μM intraplantar, 24 hrs after FCA, inflamed paw, 240′), 550 ± 18.4 g; in test [1] (oATP 336 μM intraplantar, 24 hrs after FCA, inflamed paw, time 0′ (untreated inflamed paw, baseline)) it was 60 ± 1.9 g. Further, the “nociceptive threshold or paw pressure threshold” value in test [1] (oATP 336 μM, inflammatory process induced 48 hrs before, 30′) is 210 ± 10.7 g; in test [1] (oATP 336 μM, inflammatory process induced 48 hrs before, 60′) it was 360 ± 25.8 g; in test [1] (oATP 336 μM, inflammatory process induced 48 hrs before, 90′) it was 395 ± 30.2 g; in test [1] (oATP 336 μM, inflammatory process induced 48 hrs before, 120′) it was 450 ± 38.1 g; in test [1] (oATP 336 μM, inflammatory process induced 48 hrs before, 180′) it was 550 ± 45.9 g; in test [1] (oATP 336 μM, inflammatory process induced 48 hrs before, 240′) it was 690 ± 56.6 g. In addition, the “nociceptive threshold or paw pressure threshold” value came out at 400 ± 29.7 g in test [1] (oATP 336 μM, inflammatory process induced 48 hrs before, 12 hours); 210 ± 7.2 g in test [1] (oATP 336 μM, inflammatory process induced 48 hrs before, 24 hours); 190 ± 3.3 g in test [1] (oATP 336 μM, inflammatory process induced 48 hrs before, 26 hours); 55 ± 2.0 g in test [1] (oATP 336 μM, inflammatory process induced 48 hrs before, time 0′ (baseline)). Moreover, the “inflammatory signs (swelling, hyperthermia)” value in test [1] (oATP treated paws compared with untreated paws) is “reduction of inflammatory signs”. For the same compound, the “effect on nociceptive threshold” value in the test on noninflamed rat paws (already at the lowest oATP concentration (56 μM), dose/effect curves superimposable until 120′) is “effective in increasing nociceptive threshold, for a short time”. For the same compound, the ATP levels result in test [2] (inflamed tissues (24 h FCA), p<0.005 vs inflamed untreated paws) is reported as “significantly reduced”; in test [2] (noninflamed tissues) it was “did not significantly change ATP levels”. Moreover, in test [2] (oATP treated paws, untreated 1050±90, mean±S.E.M. of 7 experiments), the “ATP content of paw homogenate” value is 320±22 nmoles/g fresh tissue.
